In US20080009418A1, “Selective Inhibitors” (Alchemia LTD., priority 2004, published 2008):

Assays:
Conditions in all cases: compound at 10 μM
[1] = target: T1, Human neuropeptide Y (NPY-Y1) (Homo sapiens, UniProt P25929); assay: Radioligand binding, human neuropeptide Y NPY-Y1 membranes, FlashPlate, [125I]-PYY
T1 construct: purchased Perkin Elmer Biosignal
T1 sequence (P25929 1-384): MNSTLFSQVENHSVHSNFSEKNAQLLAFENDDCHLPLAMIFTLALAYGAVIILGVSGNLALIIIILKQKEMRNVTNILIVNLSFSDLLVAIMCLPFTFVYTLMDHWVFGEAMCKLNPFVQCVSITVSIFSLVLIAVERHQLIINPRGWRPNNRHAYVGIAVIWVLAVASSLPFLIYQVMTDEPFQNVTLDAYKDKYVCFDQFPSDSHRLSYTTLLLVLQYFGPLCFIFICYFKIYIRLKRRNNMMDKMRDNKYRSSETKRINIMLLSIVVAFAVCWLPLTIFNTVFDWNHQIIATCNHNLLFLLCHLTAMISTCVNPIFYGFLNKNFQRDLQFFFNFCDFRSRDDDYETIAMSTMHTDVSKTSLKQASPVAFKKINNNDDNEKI
Procedure, shortened: (§1)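 Cloned human receptor membranes were coated onto FlashPlate wells and incubated with radioligand and compound (added from a 0.5 mM DMSO daughter plate) for 1 hour at room temperature in the dark. Scintillation counting gave percent inhibition, with DMSO defining total and reference ligand defining non-specific binding.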

Human neurokinin (NK1) = target: T2, Human neurokinin (NK1) (Homo sapiens, UniProt P25103); assay: Radioligand binding, human neurokinin NK1 membranes, filtration, [125I]-Substance P
T2 construct: purchased Perkin Elmer Biosignal
Procedure, shortened: (§2)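 Filtration binding on cloned human receptor membranes (1 Unit/well), [125I]-Substance P for NK1 and [3H]-Diprenorphine for KOP, 1 h at room temperature. Filters PEI-presoaked, washed with cold 50 mM Tris-HCl pH 7.4, counted by scintillation; percent inhibition calculated, reference ligand defining non-specific binding.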

Human opioid (ORL1) = target: T3, Human opioid (ORL1) (Homo sapiens, UniProt P41146); assay: Radioligand binding, human opioid ORL1 membranes, FlashPlate, [125I]-Nociceptin
T3 construct: purchased Perkin Elmer Biosignal
Procedure, shortened: as §1

Human μ-opioid (MOP) = target: T4, Human μ-opioid (MOP) (Homo sapiens, UniProt P35372); assay: Radioligand binding, human μ-opioid (MOP) membranes, FlashPlate, [3H]-Naloxone
T4 construct: purchased Perkin Elmer Biosignal
Procedure, shortened: as §1

Human Melanocortin (MC4) = target: T5, Human Melanocortin (MC4) (Homo sapiens, UniProt P32245); assay: Radioligand binding, human melanocortin MC4 membranes, FlashPlate, [125I]-NDP-αMSH
T5 construct: purchased Perkin Elmer Biosignal
Procedure, shortened: as §1

Human melanocortin (MC5) = target: T6, Human melanocortin (MC5) (Homo sapiens, UniProt P33032); assay: Radioligand binding, human melanocortin MC5 membranes, FlashPlate, [125I]-NDP-αMSH
T6 construct: purchased Perkin Elmer Biosignal
Procedure, shortened: as §1

Human Melanocortin (MC3) = target: T7, Human Melanocortin (MC3) (Homo sapiens, UniProt P41968); assay: Radioligand binding, human melanocortin MC3 membranes, FlashPlate, [125I]-NDP-αMSH
T7 construct: purchased Perkin Elmer Biosignal
Procedure, shortened: as §1

Mouse urotensin (mUR2) = target: T8, Mouse urotensin (mUR2) (Mus musculus, UniProt Q8VIH9); assay: Radioligand binding, mouse urotensin mUR2 membranes, FlashPlate, [125I]-Urotensin II
T8 construct: purchased Perkin Elmer Biosignal
T8 sequence (Q8VIH9 1-385): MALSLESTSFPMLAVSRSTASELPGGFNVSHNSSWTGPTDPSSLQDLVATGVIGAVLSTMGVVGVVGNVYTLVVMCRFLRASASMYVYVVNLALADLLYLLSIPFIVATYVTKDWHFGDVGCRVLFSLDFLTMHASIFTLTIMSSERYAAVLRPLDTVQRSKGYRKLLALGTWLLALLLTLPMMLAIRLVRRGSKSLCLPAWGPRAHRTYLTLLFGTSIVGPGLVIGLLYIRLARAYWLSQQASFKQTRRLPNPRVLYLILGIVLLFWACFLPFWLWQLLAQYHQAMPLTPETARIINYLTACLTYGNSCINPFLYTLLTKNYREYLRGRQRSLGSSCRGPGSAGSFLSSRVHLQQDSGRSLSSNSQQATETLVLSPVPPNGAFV
Procedure, shortened: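 Cloned mouse urotensin (mUR2) receptor membranes from Perkin Elmer Biosignal were immobilized in FlashPlate microplates using a proprietary coating. Each well got 19.5 μl buffer, then 0.5 μl of DMSO, reference ligand, or compound. Adding 5 μl of [125I]-Urotensin II, diluted to 5× final concentration in binding buffer, started binding. Plates were sealed with TopSeal-A and incubated 1 hour at room temperature in the dark. Wells were counted for 30 seconds each on a TopCount after a 60-second delay, and percentage inhibition was calculated.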

Human κ-Opioid (KOP) = target: T9, Human κ-Opioid (KOP) (Homo sapiens, UniProt P41145); assay: Radioligand binding, human κ-opioid (KOP) membranes, filtration, [3H]-Diprenorphine
T9 construct: purchased Perkin Elmer Biosignal
Procedure, shortened: as §2

Human δ-opioid (DOP) = target: T10, Human δ-opioid (DOP) (Homo sapiens, UniProt P41143); assay: Radioligand binding, human δ-opioid (DOP) membranes, FlashPlate, [3H]-Bremazocine
T10 construct: purchased Perkin Elmer Biosignal
Procedure, shortened: as §1

[2] = target: T11, Human melanin-concentrating hormone (MCH1) (Homo sapiens, UniProt Q99705); assay: Radioligand binding, human melanin-concentrating hormone MCH1 membranes, FlashPlate, [125I]-S36057
T11 construct: purchased Perkin Elmer Biosignal
Procedure, shortened: as §1

[3] = [125I]-Urotensin II, FlashPlate

T4 sequence (P35372 whole entry): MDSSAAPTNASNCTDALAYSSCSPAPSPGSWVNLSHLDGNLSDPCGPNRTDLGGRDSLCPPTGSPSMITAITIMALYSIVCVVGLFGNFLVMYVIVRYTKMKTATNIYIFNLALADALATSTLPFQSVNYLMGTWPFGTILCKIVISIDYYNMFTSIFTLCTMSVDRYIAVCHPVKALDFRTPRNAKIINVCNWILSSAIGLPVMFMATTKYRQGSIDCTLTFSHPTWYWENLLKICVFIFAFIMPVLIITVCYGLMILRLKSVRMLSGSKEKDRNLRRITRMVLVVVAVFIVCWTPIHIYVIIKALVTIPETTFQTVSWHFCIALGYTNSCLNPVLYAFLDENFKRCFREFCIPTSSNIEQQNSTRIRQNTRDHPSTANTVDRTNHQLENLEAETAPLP
T9 sequence (P41145 whole entry): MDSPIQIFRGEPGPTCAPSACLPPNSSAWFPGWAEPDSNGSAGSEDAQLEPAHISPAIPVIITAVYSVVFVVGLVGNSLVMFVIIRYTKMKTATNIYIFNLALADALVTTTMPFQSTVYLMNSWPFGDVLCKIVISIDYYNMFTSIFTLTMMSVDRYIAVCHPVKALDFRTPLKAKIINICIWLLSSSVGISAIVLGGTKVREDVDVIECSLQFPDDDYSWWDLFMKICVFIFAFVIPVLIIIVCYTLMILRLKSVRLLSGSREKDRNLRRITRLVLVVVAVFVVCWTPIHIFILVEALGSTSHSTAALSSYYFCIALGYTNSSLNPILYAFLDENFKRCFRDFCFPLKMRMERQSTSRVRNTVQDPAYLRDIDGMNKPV
T2 sequence (P25103 whole entry): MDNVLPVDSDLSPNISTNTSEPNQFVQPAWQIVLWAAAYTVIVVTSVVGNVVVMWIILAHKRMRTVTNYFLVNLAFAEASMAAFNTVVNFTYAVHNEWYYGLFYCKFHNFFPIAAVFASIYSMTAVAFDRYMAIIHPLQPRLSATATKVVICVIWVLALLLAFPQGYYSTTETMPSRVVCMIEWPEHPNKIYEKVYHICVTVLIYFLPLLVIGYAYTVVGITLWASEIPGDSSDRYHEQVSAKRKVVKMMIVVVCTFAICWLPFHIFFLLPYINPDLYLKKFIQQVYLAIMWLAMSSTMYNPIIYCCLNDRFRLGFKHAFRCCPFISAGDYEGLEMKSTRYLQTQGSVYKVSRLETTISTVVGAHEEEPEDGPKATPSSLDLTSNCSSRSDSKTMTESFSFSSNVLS
T5 sequence (P32245 whole entry): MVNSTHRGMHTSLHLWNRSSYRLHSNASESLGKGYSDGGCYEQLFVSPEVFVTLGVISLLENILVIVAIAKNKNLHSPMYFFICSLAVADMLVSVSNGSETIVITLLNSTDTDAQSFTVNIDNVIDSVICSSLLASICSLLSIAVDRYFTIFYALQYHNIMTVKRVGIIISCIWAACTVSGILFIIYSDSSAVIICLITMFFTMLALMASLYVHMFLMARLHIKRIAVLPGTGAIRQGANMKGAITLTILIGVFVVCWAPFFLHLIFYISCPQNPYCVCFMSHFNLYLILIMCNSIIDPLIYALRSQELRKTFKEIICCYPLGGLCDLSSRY
T7 sequence (P41968 whole entry): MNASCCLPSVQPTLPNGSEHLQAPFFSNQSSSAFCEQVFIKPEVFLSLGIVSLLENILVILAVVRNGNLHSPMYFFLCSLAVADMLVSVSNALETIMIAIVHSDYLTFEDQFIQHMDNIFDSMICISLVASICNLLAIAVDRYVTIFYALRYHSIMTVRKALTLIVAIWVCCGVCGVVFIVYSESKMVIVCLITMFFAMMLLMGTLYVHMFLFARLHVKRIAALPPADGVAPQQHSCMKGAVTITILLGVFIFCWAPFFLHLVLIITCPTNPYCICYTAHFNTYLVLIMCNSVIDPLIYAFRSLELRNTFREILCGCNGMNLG
T10 sequence (P41143 whole entry): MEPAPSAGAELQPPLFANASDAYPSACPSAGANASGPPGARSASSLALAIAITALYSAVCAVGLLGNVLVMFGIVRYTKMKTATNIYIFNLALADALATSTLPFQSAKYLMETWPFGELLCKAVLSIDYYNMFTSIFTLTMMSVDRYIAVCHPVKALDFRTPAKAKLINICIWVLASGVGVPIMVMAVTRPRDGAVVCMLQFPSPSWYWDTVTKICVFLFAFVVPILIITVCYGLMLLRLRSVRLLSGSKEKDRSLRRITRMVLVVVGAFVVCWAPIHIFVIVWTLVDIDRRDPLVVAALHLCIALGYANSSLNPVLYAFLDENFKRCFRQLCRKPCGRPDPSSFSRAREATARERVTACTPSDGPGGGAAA
T6 sequence (P33032 whole entry): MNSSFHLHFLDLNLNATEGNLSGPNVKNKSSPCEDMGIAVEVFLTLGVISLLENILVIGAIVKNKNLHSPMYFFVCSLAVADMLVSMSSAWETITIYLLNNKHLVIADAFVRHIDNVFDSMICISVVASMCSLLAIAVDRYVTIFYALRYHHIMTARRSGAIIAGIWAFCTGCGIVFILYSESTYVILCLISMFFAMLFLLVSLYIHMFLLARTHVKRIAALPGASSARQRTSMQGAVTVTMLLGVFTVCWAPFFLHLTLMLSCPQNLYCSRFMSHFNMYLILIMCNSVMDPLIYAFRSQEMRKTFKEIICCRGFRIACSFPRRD
T11 sequence (Q99705 whole entry): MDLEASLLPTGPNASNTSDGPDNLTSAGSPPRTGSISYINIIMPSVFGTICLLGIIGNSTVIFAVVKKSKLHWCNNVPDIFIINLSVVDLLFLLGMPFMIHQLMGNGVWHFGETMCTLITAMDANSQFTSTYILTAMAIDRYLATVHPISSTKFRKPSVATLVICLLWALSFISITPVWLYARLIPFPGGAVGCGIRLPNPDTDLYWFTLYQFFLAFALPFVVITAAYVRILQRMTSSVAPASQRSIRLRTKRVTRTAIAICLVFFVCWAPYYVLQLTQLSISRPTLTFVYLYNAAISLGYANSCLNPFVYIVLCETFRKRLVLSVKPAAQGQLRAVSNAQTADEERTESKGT
T3 sequence (P41146 whole entry): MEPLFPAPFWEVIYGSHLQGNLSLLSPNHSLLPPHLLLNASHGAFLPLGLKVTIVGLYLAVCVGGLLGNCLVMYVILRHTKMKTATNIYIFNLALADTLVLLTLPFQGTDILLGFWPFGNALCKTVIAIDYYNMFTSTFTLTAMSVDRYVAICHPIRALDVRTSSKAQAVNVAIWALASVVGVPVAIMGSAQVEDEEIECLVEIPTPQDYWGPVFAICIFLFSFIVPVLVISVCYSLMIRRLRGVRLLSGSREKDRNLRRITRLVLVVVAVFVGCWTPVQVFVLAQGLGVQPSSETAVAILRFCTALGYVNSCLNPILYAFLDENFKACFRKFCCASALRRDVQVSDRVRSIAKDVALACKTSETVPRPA

NCCC(=O)NC1C(OCc2ccc(Cl)cc2)OC(COCc2ccc(Cl)cc2)C(O)C1OCc1ccccc1 (single isomer, unassigned) [compound 487]
A9: inhibition of radioligand binding, human neuropeptide Y (NPY-Y1) ([1]; [125I]-PYY): − (“−” indicates less than 50% inhibition at 10 μM)
A8: inhibition of radioligand binding, human neurokinin (NK1) (Human neurokinin (NK1); [125I]-Substance P, 10 µM): − (“−” indicates less than 50% inhibition at 10 μM)
A10: inhibition of radioligand binding, human opioid (ORL1) (Human opioid (ORL1); [125I]-Nociceptin, 10 µM): − (“−” indicates less than 50% inhibition at 10 μM)
A7: inhibition of radioligand binding, human μ-opioid (MOP) (Human μ-opioid (MOP); [3H]-Naloxone, 10 µM): + (“+” indicates greater than 50% inhibition at 10 μM)
A4: inhibition of radioligand binding, human melanocortin (MC4) (Human Melanocortin (MC4); [125I]-NDP-αMSH, 10 µM): − (“−” indicates less than 50% inhibition at 10 μM)
A5: inhibition of radioligand binding, human melanocortin (MC5) (Human melanocortin (MC5); [125I]-NDP-αMSH): + (“+” indicates greater than 50% inhibition at 10 μM)
A3: inhibition of radioligand binding, human melanocortin (MC3) (Human Melanocortin (MC3); [125I]-NDP-αMSH): − (“−” indicates less than 50% inhibition at 10 μM)
A11: inhibition of radioligand binding, mouse urotensin (mUR2) (Mouse urotensin (mUR2); [125I]-Urotensin II): − (“−” indicates less than 50% inhibition at 10 μM)
A2: inhibition of radioligand binding, human κ-opioid (KOP) (Human κ-Opioid (KOP); [3H]-Diprenorphine): − (“−” indicates less than 50% inhibition at 10 μM)
A1: inhibition of radioligand binding, human δ-opioid (DOP) (Human δ-opioid (DOP); [3H]-Bremazocine): − (“−” indicates less than 50% inhibition at 10 μM)
A6: inhibition of radioligand binding, human melanin-concentrating hormone (MCH1) ([2]; [125I]-S36057): − (“−” indicates less than 50% inhibition at 10 μM)

NCCC(=O)N[C@H]1C(OCc2ccc3ccccc3c2)O[C@H](COCc2ccc3ccccc3c2)[C@@H](O)[C@@H]1OCc1ccccc1 (stereo partly shown) [compound 449]
A9: inhibition of radioligand binding ([1]; [125I]-PYY, human NPY-Y1 membranes): − (“−” indicates less than 50% inhibition at 10 μM)
A8: inhibition of radioligand binding (Human neurokinin (NK1); [125I]-Substance P, human NK1 membranes): + (“+” indicates greater than 50% inhibition at 10 μM)
A10: inhibition of radioligand binding (Human opioid (ORL1); [125I]-Nociceptin, human ORL1 membranes, 10 µM): + (“+” indicates greater than 50% inhibition at 10 μM)
A7: inhibition of radioligand binding (Human μ-opioid (MOP); [3H]-Naloxone, human MOP membranes): − (“−” indicates less than 50% inhibition at 10 μM)
A4: inhibition of radioligand binding (Human Melanocortin (MC4); [125I]-NDP-αMSH, human MC4 membranes): + (“+” indicates greater than 50% inhibition at 10 μM)
A5: inhibition of radioligand binding (Human melanocortin (MC5); [125I]-NDP-αMSH, human MC5 membranes): + (“+” indicates greater than 50% inhibition at 10 μM)
A3: inhibition of radioligand binding (Human Melanocortin (MC3); [125I]-NDP-αMSH, human MC3 membranes, 10 µM): + (“+” indicates greater than 50% inhibition at 10 μM)
A11: inhibition of radioligand binding (Mouse urotensin (mUR2); [125I]-Urotensin II, mouse mUR2 membranes): − (“−” indicates less than 50% inhibition at 10 μM)
A2: inhibition of radioligand binding (Human κ-Opioid (KOP); [3H]-Diprenorphine, human KOP membranes): − (“−” indicates less than 50% inhibition at 10 μM)
A1: inhibition of radioligand binding (Human δ-opioid (DOP); [3H]-Bremazocine, human DOP membranes): − (“−” indicates less than 50% inhibition at 10 μM)
A6: inhibition of radioligand binding ([2]; [125I]-S36057, human MCH1 membranes, 10 µM): + (“+” indicates greater than 50% inhibition at 10 μM)

COC[C@H]1OC(OCc2ccc3ccccc3c2)[C@H](NC(=O)CCNC(=N)N)[C@@H](OCc2ccc(-c3ccccc3)cc2)[C@@H]1O (stereo partly shown) [compound 16]
A9 radioligand binding inhibition ([1]; human NPY-Y1 membranes): − (“−” indicates less than 50% inhibition at 10 μM)
A8 radioligand binding inhibition (Human neurokinin (NK1); human neurokinin NK1 membranes): + (“+” indicates greater than 50% inhibition at 10 μM)
A10 radioligand binding inhibition (Human opioid (ORL1); human ORL1 membranes): − (“−” indicates less than 50% inhibition at 10 μM)
A7 radioligand binding inhibition (Human μ-opioid (MOP); human μ-opioid (MOP) membranes): + (“+” indicates greater than 50% inhibition at 10 μM)
A4 radioligand binding inhibition (Human Melanocortin (MC4); human melanocortin MC4 membranes): + (“+” indicates greater than 50% inhibition at 10 μM)
A5 radioligand binding inhibition (Human melanocortin (MC5); human melanocortin MC5 membranes): + (“+” indicates greater than 50% inhibition at 10 μM)
A3 radioligand binding inhibition (Human Melanocortin (MC3); human melanocortin MC3 membranes): + (“+” indicates greater than 50% inhibition at 10 μM)
A11 radioligand binding inhibition (Mouse urotensin (mUR2); mouse urotensin mUR2 membranes): − (“−” indicates less than 50% inhibition at 10 μM)
A2 radioligand binding inhibition (Human κ-Opioid (KOP); human κ-opioid (KOP) membranes): + (“+” indicates greater than 50% inhibition at 10 μM)
A1 radioligand binding inhibition (Human δ-opioid (DOP); human δ-opioid (DOP) membranes): + (“+” indicates greater than 50% inhibition at 10 μM)
A6 radioligand binding inhibition ([2]; human MCH1 membranes): + (“+” indicates greater than 50% inhibition at 10 μM)

CSC1OC(COCc2ccc(-c3ccccc3)cc2)C(O)C(OCc2ccccc2)C1NC(=O)CNC(=N)N (stereo not shown) [compound 255]
A9: inhibition of radioligand binding ([1]; [125I]-PYY, FlashPlate): − (“−” indicates less than 50% inhibition at 10 μM)
A8: inhibition of radioligand binding (Human neurokinin (NK1); [125I]-Substance P, filtration): + (“+” indicates greater than 50% inhibition at 10 μM)
A10: inhibition of radioligand binding (Human opioid (ORL1); [125I]-Nociceptin, FlashPlate): − (“−” indicates less than 50% inhibition at 10 μM)
A7: inhibition of radioligand binding (Human μ-opioid (MOP); [3H]-Naloxone, FlashPlate): − (“−” indicates less than 50% inhibition at 10 μM)
A4: inhibition of radioligand binding (Human Melanocortin (MC4); [125I]-NDP-αMSH, FlashPlate): + (“+” indicates greater than 50% inhibition at 10 μM)
A5: inhibition of radioligand binding (Human melanocortin (MC5); [125I]-NDP-αMSH, FlashPlate): + (“+” indicates greater than 50% inhibition at 10 μM)
A3: inhibition of radioligand binding (Human Melanocortin (MC3); [125I]-NDP-αMSH, FlashPlate): − (“−” indicates less than 50% inhibition at 10 μM)
A11: inhibition of radioligand binding (Mouse urotensin (mUR2); [3]): − (“−” indicates less than 50% inhibition at 10 μM)
A2: inhibition of radioligand binding (Human κ-Opioid (KOP); [3H]-Diprenorphine, filtration): − (“−” indicates less than 50% inhibition at 10 μM)
A1: inhibition of radioligand binding (Human δ-opioid (DOP); [3H]-Bremazocine, FlashPlate): − (“−” indicates less than 50% inhibition at 10 μM)
A6: inhibition of radioligand binding ([2]; [125I]-S36057, FlashPlate): − (“−” indicates less than 50% inhibition at 10 μM)

CSC1OC(COCc2ccc(-c3ccccc3)cc2)C(O)C(OCc2ccccc2)C1NC(=O)CCN (stereo not shown) [compound 256]
A9: inhibition of radioligand binding ([1]; [125I]-PYY, FlashPlate): − (“−” indicates less than 50% inhibition at 10 μM)
A8: inhibition of radioligand binding (Human neurokinin (NK1); [125I]-Substance P, filtration): + (“+” indicates greater than 50% inhibition at 10 μM)
A10: inhibition of radioligand binding (Human opioid (ORL1); [125I]-Nociceptin, FlashPlate): − (“−” indicates less than 50% inhibition at 10 μM)
A7: inhibition of radioligand binding (Human μ-opioid (MOP); [3H]-Naloxone, FlashPlate): − (“−” indicates less than 50% inhibition at 10 μM)
A4: inhibition of radioligand binding (Human Melanocortin (MC4); [125I]-NDP-αMSH, FlashPlate): − (“−” indicates less than 50% inhibition at 10 μM)
A5: inhibition of radioligand binding (Human melanocortin (MC5); [125I]-NDP-αMSH, FlashPlate): − (“−” indicates less than 50% inhibition at 10 μM)
A3: inhibition of radioligand binding (Human Melanocortin (MC3); [125I]-NDP-αMSH, FlashPlate): − (“−” indicates less than 50% inhibition at 10 μM)
A11: inhibition of radioligand binding (Mouse urotensin (mUR2); [3]): − (“−” indicates less than 50% inhibition at 10 μM)
A2: inhibition of radioligand binding (Human κ-Opioid (KOP); [3H]-Diprenorphine, filtration): − (“−” indicates less than 50% inhibition at 10 μM)
A1: inhibition of radioligand binding (Human δ-opioid (DOP); [3H]-Bremazocine, FlashPlate): − (“−” indicates less than 50% inhibition at 10 μM)
A6: inhibition of radioligand binding ([2]; [125I]-S36057, FlashPlate): − (“−” indicates less than 50% inhibition at 10 μM)
